{"source": "patent US12686665B2", "about": "“Bicyclic fused ring derivative or salt thereof and pharmaceutical composition comprising same” (YUHAN CORPORATION, priority 2021, dated 2026)", "note": "Where a name gives a salt, the structure may show the parent alone."}
{"molecular_target": "T1, recombinant human Lysyl Oxidase-Like 2 (LOXL2) (Homo sapiens, UniProt Q9Y4K0)", "T1 construct": "purchased R&D systems", "T1 sequence (Q9Y4K0 26-774)": "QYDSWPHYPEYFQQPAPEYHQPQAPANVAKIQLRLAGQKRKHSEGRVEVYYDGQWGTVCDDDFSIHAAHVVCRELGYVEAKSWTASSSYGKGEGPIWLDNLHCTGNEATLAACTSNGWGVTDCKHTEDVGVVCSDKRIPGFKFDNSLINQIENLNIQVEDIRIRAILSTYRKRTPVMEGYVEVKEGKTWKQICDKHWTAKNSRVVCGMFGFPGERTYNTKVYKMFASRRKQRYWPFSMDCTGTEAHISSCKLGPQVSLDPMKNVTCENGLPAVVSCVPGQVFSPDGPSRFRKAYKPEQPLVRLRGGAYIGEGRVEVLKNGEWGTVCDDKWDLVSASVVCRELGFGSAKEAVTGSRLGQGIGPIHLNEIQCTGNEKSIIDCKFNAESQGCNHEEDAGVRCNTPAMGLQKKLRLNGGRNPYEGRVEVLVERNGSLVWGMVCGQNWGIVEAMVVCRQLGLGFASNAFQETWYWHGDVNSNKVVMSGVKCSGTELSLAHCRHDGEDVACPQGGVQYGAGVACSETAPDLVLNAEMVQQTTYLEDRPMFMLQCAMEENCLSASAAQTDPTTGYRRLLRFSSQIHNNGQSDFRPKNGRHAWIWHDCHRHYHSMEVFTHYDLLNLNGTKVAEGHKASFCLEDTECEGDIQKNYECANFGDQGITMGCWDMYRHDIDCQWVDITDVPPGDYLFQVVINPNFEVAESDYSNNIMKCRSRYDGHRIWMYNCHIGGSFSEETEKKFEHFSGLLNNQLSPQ", "experiment": "Amplex Red HRP-coupled amine oxidase assay, recombinant human LOXL2", "type": "biochemical", "settings": "60 min incubation with enzyme at 37° C., putrescine substrate, read-out: Inhibitory activity (IC50, nM) human LOXL2", "description": "(§1) The activities of the compounds according to the present invention against recombinant human Lysyl Oxidase-Like 2 (recombinant human LOXL2, R&D systems) were evaluated by measuring the levels of hydrogen peroxide in the HRP (horseradish peroxidase) coupled reactions, with the Amplex Red Hydrogen Peroxide Assay Kit (Molecular Probes, Invitrogen, USA). The tests were carried out at 37° C., and putrescine was used as a substrate. In the HRP coupling reaction, the oxidation of 10-acetyl-3,7-dihydroxyphenoxazine (Amplex Red reagent) by hydrogen peroxide generates a fluorescent product, i.e., resorufin. Briefly, the test compounds were dissolved in dimethyl sulfoxide (DMSO) at a concentration of 20 mM. Dose-response measurements were carried out by serial dilutions in DMSO to generate a six-point curve. The upper concentration was adjusted according to the potency of the compound, and then diluted with the reaction buffer to obtain a final DMSO concentration of 1%. Purified human LOXL2 in 50 mM sodium phosphate buffer (pH7.4) was added to each well of a 96 well black plate. The test compounds dissolved in DMSO were incubated with the human LOXL2 enzyme at 37° C. for 60 minutes. After the incubation for 60 minutes, a reaction mixture containing 400 μM Amplex Red reagent, 30 mM putrescine, and 2 U/mL HRP in 50 mM sodium phosphate buffer (pH 7.4) was added to each well. Fluorescence was measured with a microplate reader (Flexstation3, Molecular Devices), under the conditions of excitation at 530 nm and emission at 590 nm, 1 hour after the addition of the mixture. Inhibition by each compound was measured as % reduction in signal, compared to the control without an inhibitor (diluted DMSO only). The data were fixed to a four-variable logistic model, and […] values were calculated using the GraphPad Prism program.", "units": {"IC50": "nM"}}
{"smiles": "N#Cc1cc(-c2cc(CO)ccc2F)c2ncn(C/C(F)=C/CN)c2c1", "note": "[Example 185, (Z)-1-(4-amino-2-fluorobut-2-en-1-yl)-4-(2-fluoro-5-(hydroxymethyl)phenyl)-1H-benzo[d]imidazol-6-carbonitrile hydrochloride]", "IC50": 105}
{"smiles": "N#Cc1cc(-c2cccc(CO)c2Cl)c2ncn(C/C(F)=C/CN)c2c1", "note": "[Example 186, (Z)-1-(4-amino-2-fluoro-2-but-1-yl)-4-(2-chloro-3-(hydroxymethyl)phenyl)-1H-benzo[d]imidazol-6-carbonitrile hydrochloride]", "IC50": 109}
{"smiles": "N#Cc1cc(-c2cccnc2)c2ncn(C/C(F)=C/CN)c2c1", "note": "[Example 187, (Z)-1-(4-amino-2-fluorobut-2-en-1-yl)-4-(pyridin-3-yl)-1H-benzo[d]imidazol-6-carbonitrile hydrochloride]", "IC50": 464}
{"smiles": "N#Cc1cc(-c2cncc(F)c2)c2ncn(C/C(F)=C/CN)c2c1", "note": "[Example 188, (Z)-1-(4-amino-2-fluorobut-2-en-1-yl)-4-(5-fluoropyridin-3-yl)-1H-benzo[d]imidazol-6-carbonitrile hydrochloride]", "IC50": 131}
{"smiles": "N#Cc1cc(-c2cncc(Cl)c2)c2ncn(C/C(F)=C/CN)c2c1", "note": "[Example 189, (Z)-1-(4-amino-2-fluorobut-2-en-1-yl)-4-(5-chloropyridin-3-yl)-1H-benzo[d]imidazol-6-carbonitrile hydrochloride]", "IC50": 92.8}
{"smiles": "N#Cc1cc(-c2cncnc2)c2ncn(C/C(F)=C/CN)c2c1", "note": "[Example 190, (Z)-1-(4-amino-2-fluorobut-2-en-1-yl)-4-(pyrimidin-5-yl)-1H-benzo[d]imidazol-6-carbonitrile hydrochloride]", "IC50": 117}
{"smiles": "Cn1nc(C(F)(F)F)cc1-c1cc(C#N)cc2c1ncn2C/C(F)=C/CN", "note": "[Example 193, (Z)-1-(4-amino-2-fluorobut-2-en-1-yl)-4-(1-methyl-3-(trifluoromethyl)-1H-pyrazol-5-yl)-1H-benzo[d]imidazol-6-carbonitrile hydrochloride]", "IC50": 204}
{"smiles": "CN(C)S(=O)(=O)c1cccc(-c2cc(C(F)(F)F)cc3c2nnn3C/C(F)=C/CN)c1", "note": "[Example 196, (Z)-3-(1-(4-amino-2-fluorobut-2-en-1-yl)-6-(trifluoromethyl)-1H-benzo[d][1,2,3]triazol-4-yl)—N,N-dimethylbenzenesulfonamide hydrochloride]", "IC50": 34}
{"smiles": "CC(=O)c1ccc(F)c(-c2cc(C(F)(F)F)cc3c2nnn3C/C(F)=C/CN)c1", "note": "[Example 197, (Z)-1-(3-(1-(4-amino-2-fluorobut-2-en-1-yl)-6-(trifluoromethyl)-1H-benzo[d][1,2,3]triazol-4-yl)-4-fluorophenyl)ethan-1-one hydrochloride]", "IC50": 308}
{"smiles": "NC/C=C(\\F)Cn1nnc2c(-c3cc(CO)ccc3F)cc(C(F)(F)F)cc21", "note": "[Example 198, (Z)-(3-(1-(4-amino-2-fluorobut-2-en-1-yl)-6-(trifluoromethyl)-1H-benzo[d][1,2,3]triazol-4-yl)-4-fluorophenyl)methanol hydrochloride]", "IC50": 226}
{"smiles": "NC/C=C(\\F)Cn1nnc2c(-c3cccc(CO)c3Cl)cc(C(F)(F)F)cc21", "note": "[Example 199, (Z)-(3-(1-(4-amino-2-fluoro-2-en-1-yl)-6-(trifluoromethyl)-1H-benzo[d][1,2,3]triazol-4-yl)-2-chlorophenyl)methanol hydrochloride]", "IC50": 305}
{"smiles": "NC/C=C(\\F)Cn1nnc2c(-c3cncc(F)c3)cc(C(F)(F)F)cc21", "note": "[Example 200, (Z)-3-fluoro-4-(4-(5-fluoropyridin-3-yl)-6-(trifluoromethyl)-1H-benzo[d][1,2,3]triazol-1-yl)but-2-en-1-amine hydrochloride]", "IC50": 330}
{"smiles": "NC/C=C(\\F)Cn1nnc2c(-c3cncc(Cl)c3)cc(C(F)(F)F)cc21", "note": "[Example 201, (Z)-4-(4-(5-chloropyridin-3-yl)-6-(trifluoromethyl)-1H-benzo[d][1,2,3]triazol-1-yl)-3-fluorobut-2-en-1-amine hydrochloride]", "IC50": 142}
{"smiles": "NC/C=C(\\F)Cn1nnc2c(-c3cncnc3)cc(C(F)(F)F)cc21", "note": "[Example 202, (Z)-3-fluoro-4-(4-(pyrimidin-5-yl)-6-(trifluoromethyl)-1H-benzo[d][1,2,3]triazol-1-yl)but-2-en-1-amine hydrochloride]", "IC50": 190}
{"smiles": "CCn1nccc1-c1cc(C(F)(F)F)cc2c1nnn2C/C(F)=C/CN", "note": "[Example 203, (Z)-4-(4-(1-ethyl-1H-pyrazol-5-yl)-6-(trifluoromethyl)-1H-benzo[d][1,2,3]triazol-1-yl)-3-fluorobut-2-en-1-amine hydrochloride]", "IC50": 351}
{"smiles": "Cc1cc(-c2cc(C(F)(F)F)cc3c2nnn3C/C(F)=C/CN)n(C)n1", "note": "[Example 204, (Z)-4-[4-(1,3-dimethyl-1H-pyrazol-5-yl)-6-(trifluoromethyl)-1H-benzo[d][1,2,3]triazol-1-yl]-3-fluorobut-2-en-1-amine hydrochloride]", "IC50": 497}
{"smiles": "NC/C=C(\\F)Cn1nnc2c(-c3cnn(CCO)c3)cc(C(F)(F)F)cc21", "note": "[Example 205, (Z)-2-(4-(1-(4-amino-2-fluorobut-2-en-1-yl)-6-(trifluoromethyl)-1H-benzo[d][1,2,3]triazol-4-yl]-1H-pyrazol-1-yl)ethan-1-ol hydrochloride]", "IC50": 182}
{"smiles": "N#Cc1cc(-c2cc(CO)ccc2F)c2nnn(C/C(F)=C/CN)c2c1", "note": "[Example 206, (Z)-1-(4-amino-2-fluorobut-2-en-1-yl)-4-[2-fluoro-5-(hydroxymethyl)phenyl]-1H-benzo[d][1,2,3]triazol-6-carbonitrile hydrochloride]", "IC50": 200}
{"smiles": "N#Cc1cc(-c2cncc(F)c2)c2nnn(C/C(F)=C/CN)c2c1", "note": "[Example 208, (Z)-1-(4-amino-2-fluorobut-2-en-1-yl)-4-(5-fluoropyridin-3-yl)-1H-benzo[d][1,2,3]triazol-6-carbonitrile hydrochloride]", "IC50": 270}
{"smiles": "N#Cc1cc(-c2cncc(Cl)c2)c2nnn(C/C(F)=C/CN)c2c1", "note": "[Example 209, (Z)-1-(4-amino-2-fluorobut-2-en-1-yl)-4-(5-chloropyridin-3-yl)-1H-benzo[d][1,2,3]triazol-6-carbonitrile hydrochloride]", "IC50": 86.8}
{"molecular_target": "T2, recombinant human DAO (diamine oxidase) (Homo sapiens, UniProt P19801)", "T2 construct": "purchased R&D systems", "T2 sequence (P19801 20-751)": "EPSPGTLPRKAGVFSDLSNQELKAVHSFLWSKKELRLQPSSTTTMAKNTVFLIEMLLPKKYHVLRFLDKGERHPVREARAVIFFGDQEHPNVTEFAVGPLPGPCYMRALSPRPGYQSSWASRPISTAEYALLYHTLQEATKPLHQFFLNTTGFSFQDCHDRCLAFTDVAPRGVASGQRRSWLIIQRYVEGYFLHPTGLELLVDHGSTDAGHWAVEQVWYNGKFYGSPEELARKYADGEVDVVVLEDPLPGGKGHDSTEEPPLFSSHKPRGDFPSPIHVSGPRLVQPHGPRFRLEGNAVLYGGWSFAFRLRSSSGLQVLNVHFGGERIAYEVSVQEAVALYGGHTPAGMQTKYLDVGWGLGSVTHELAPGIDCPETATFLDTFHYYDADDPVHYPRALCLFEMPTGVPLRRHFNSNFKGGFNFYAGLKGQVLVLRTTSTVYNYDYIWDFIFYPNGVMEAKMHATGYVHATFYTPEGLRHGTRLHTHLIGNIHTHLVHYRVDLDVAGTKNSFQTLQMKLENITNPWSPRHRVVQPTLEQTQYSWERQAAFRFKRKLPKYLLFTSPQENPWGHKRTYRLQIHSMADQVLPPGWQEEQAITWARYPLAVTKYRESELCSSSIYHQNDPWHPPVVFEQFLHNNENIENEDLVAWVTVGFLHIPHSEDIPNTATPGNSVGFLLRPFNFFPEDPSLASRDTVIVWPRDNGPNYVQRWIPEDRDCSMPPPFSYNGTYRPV", "experiment": "Amplex Red HRP-coupled amine oxidase assay, recombinant human DAO", "type": "biochemical", "settings": "1 mM putrescine substrate, read-out: Inhibitory activity (IC50, nM) DAO", "description": "as §1\nAnd, the activities of the compounds according to the present invention against recombinant human MAO-A (monoamine oxidase-A, Sigma-Aldrich) and recombinant human MAO-B (monoamine oxidase-B, Sigma-Aldrich) were evaluated in a similar manner to the activity evaluation method for recombinant human LOXL2, using 0.5 mM tyramine and 1 mM benzylamine as a substrate, respectively. In addition, the activities of the compounds according to the present invention against recombinant human DAO (diamine oxidase, R&D systems) were evaluated in a similar manner to the activity evaluation method for recombinant human LOXL2, using 1 mM putrescine as a substrate.", "units": {"IC50": "nM"}}
{"smiles": "CN(C)S(=O)(=O)c1cccc(-c2cc(C(F)(F)F)cc3c2nnn3C/C(F)=C/CN)c1", "note": "[Example 196, (Z)-3-(1-(4-amino-2-fluorobut-2-en-1-yl)-6-(trifluoromethyl)-1H-benzo[d][1,2,3]triazol-4-yl)—N,N-dimethylbenzenesulfonamide hydrochloride]", "IC50": 3150}
{"smiles": "N#Cc1cc(-c2cc(CO)ccc2F)c2nnn(C/C(F)=C/CN)c2c1", "note": "[Example 206, (Z)-1-(4-amino-2-fluorobut-2-en-1-yl)-4-[2-fluoro-5-(hydroxymethyl)phenyl]-1H-benzo[d][1,2,3]triazol-6-carbonitrile hydrochloride]", "IC50": 1960}
